Test results taken from PubChem BioAssay AID2060348 (Molecular Pharmacology Branch, DTP, NCI, 2025).
pIC50: −log10 of the molar value.

System: 885724-159-R-J1-PDC spheroids viability
Experiment: Anticancer human tumor 885724-159-R-J1-PDC patient-derived pancreatic adenocarcinoma cell line growth inhibition [TAK]
Settings: spheroids with HUVEC and MSC; for pIC50: curve of first compound; for viability, T/C: stronger effect = lower value
From the text: Combinatorial screen of targeted agents with TAK-243 and ipatasertib in multi-cell type tumor spheroids
A high-throughput screen of multi-cell type tumor spheroids was designed to identify active combinations of targeted small molecules and TAK-243 or ipatasertib. Complex spheroids include a stromal component modeled by human endothelial cells (HUVEC) and fibroblasts modeled by human mesenchymal stem cells (MSCs). The concentration ranges selected for each drug and investigational agent were based upon clinically achievable concentrations if the clinical Cmax of the agent was known.
Compounds. The drugs and investigational agents: TAK-243 (785004), ipatasertib (767898), everolimus (733504), selumetinib (741078), bortezomib (756655), trametinib (758246), ixazomib (758254), vemurafenib (761431), dabrafenib (764134), sapanisertib (764658), alpelisib (765974), and copanlisib (816437), were obtained from the National Cancer Institute (NCI) Developmental Therapeutics Program Chemical Repository. The FDA-approved anticancer drug set is available from the NCI Developmental Therapeutics Program. […] The stock solutions were prepared in dimethyl sulfoxide (DMSO, Sigma-Aldrich, St. Louis, MO, cat. D2650) at 800-fold the tested concentration and stored at -70 degrees C prior to their use. All drugs and investigational agents were tested over a range starting from a high concentration at or near the clinical Cmax and decreasing in half-log increments. If the clinical Cmax for an agent had not been determined, the highest concentration tested was 10 microM.
NCI60 Cell Culture. NCI60 cell lines were obtained from the NCI Developmental Therapeutics Program Tumor Repository. For each lot of cells, the Repository performed Applied Biosystems AmpFLSTR Identifiler testing with PCR amplification to confirm consistency with the published Identifier STR profile for each cell line. Cells were kept in continuous culture for no more than 20 passages. The optimal seeding densities for each of the cell lines at each time point assessed were determined prior to performing the concentration response studies. Briefly, the NCI60 human tumor lines were grown as monolayers in RPMI 1640 medium supplemented with 10% FBS and 2 mmol/L L-glutamine.
An additional 2 lines were from the NCI60 cell line panel including melanomas, MALME-3M and SK-MEL-2. Pooled donor human umbilical vein endothelial cells (HUVEC, Lonza, cat. CC-2519) and human mesenchymal stem cells (hMSC, Lonza, cat. PT-2501) were purchased from Lonza (Walkersville, MD).
PDMR cell lines were grown in complete medium (DC medium): Dulbecco's modified Eagle's medium (DMEM)/F12 supplemented with 5% fetal bovine serum (FBS), 2 mM L-glutamine, 100 U/mL penicillin and 100 µg/ml streptomycin, 0.4 µg/ml hydrocortisone, 10 ng/ml epidermal growth factor (EGF) recombinant human protein, 24 µg/mL adenine, and 0.1 mg/mL primocin. During culture from frozen stock vials, PDMR cells were cultured in the same medium containing 10 µM Y-27632 (see Table 3). The PDCs were cultured in complete DMEM/F12 media without 10 microM Y-27632 dihydrochloride for at least two passages prior to the screen. The pooled donor HUVEC and hMSC were cultured in endothelial cell growth medium 2 (PromoCell, Heidelberg, Germany, cat. C-22011) and mesenchymal stem cell growth medium 2 (PromoCell, cat. C-28009), respectively. For all experiments, HUVEC and hMSC were used at passages </=5.
For the pre-screen, cell seeding densities were determined from a titration spanning the range from 5,000 to 313 cells per well. The mct-spheroids including 60% malignant cells, 25% HUVEC and 15% MSC dispensed as a mixture into U-bottom Ultra-Low Attachment 384-well plates (Corning, NY)
High-throughput Drug Combination Screening.
Prior to their inoculation into 384-well plates, malignant cells, HUVEC, and hMSC were removed from T flasks using TrypLE express (Thermo Fisher Scientific, cat. 12605036) and harvested by centrifugation for 5 min at 233 x g. […]

[1] = second compound 0.3 µM, first compound 0.000316 µM
[2] = second compound 0.3 µM, first compound 0.001 µM
[3] = second compound 0.3 µM, first compound 0.00316 µM
[4] = second compound 0.3 µM, first compound 0.01 µM
[5] = second compound 0.3 µM, first compound 0.0316 µM
[6] = second compound 0.3 µM, first compound 0.1 µM
[7] = second compound 0.949 µM, first compound 0.000316 µM
[8] = second compound 0.949 µM, first compound 0.001 µM
[9] = second compound 0.949 µM, first compound 0.00316 µM
[10] = second compound 0.949 µM, first compound 0.01 µM
[11] = second compound 0.949 µM, first compound 0.0316 µM
[12] = second compound 0.949 µM, first compound 0.1 µM
[13] = second compound 3 µM, first compound 0.000316 µM
[14] = second compound 3 µM, first compound 0.001 µM
[15] = second compound 3 µM, first compound 0.00316 µM
[16] = second compound 3 µM, first compound 0.01 µM
[17] = second compound 3 µM, first compound 0.0316 µM
[18] = second compound 3 µM, first compound 0.1 µM
[19] = second compound 9.49 µM, first compound 0.000316 µM
[20] = second compound 9.49 µM, first compound 0.001 µM
[21] = second compound 9.49 µM, first compound 0.00316 µM
[22] = second compound 9.49 µM, first compound 0.01 µM
[23] = second compound 9.49 µM, first compound 0.0316 µM
[24] = second compound 9.49 µM, first compound 0.1 µM
[25] = second compound 30 µM, first compound 0.000316 µM
[26] = second compound 30 µM, first compound 0.001 µM
[27] = second compound 30 µM, first compound 0.00316 µM
[28] = second compound 30 µM, first compound 0.01 µM
[29] = second compound 30 µM, first compound 0.0316 µM
[30] = second compound 30 µM, first compound 0.1 µM
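Note: spheroids exposed to drugs for seven days.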
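Throughout, for viability, T/C: 100% = DMSO vehicle control viability.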

`CC(C)n1nc(-c2ccc3oc(N)nc3c2)c2c(N)ncnc21` + CC(C)NCC(C(=O)N1CCN(c2ncnc3c2C(C)CC3O)CC1)c1ccc(Cl)cc1 gave a pIC50 (second compound 0.3 µM) of 7.73, a pIC50 (second compound 0.949 µM) of 8.16 and a pIC50 (second compound 3 µM) of 8.50. For the same molecule, the pIC50 (second compound 9.49 µM) was > 9.50, the pIC50 (second compound 30 µM) was > 9.50 and the viability, T/C [1] was 66.2%. For the same molecule, the viability, T/C [2] was 64.1%, the viability, T/C [3] was 56.8% and the viability, T/C [4] was 53.9%. It also gave a viability, T/C [5] of 48.6%, a viability, T/C [6] of 37.1% and a viability, T/C [7] of 57.2%. For the same molecule, the viability, T/C [8] was 63.5%, the viability, T/C [9] was 54% and the viability, T/C [10] was 47.5%. For the same molecule, the viability, T/C [11] was 38.4%, the viability, T/C [12] was 33.6% and the viability, T/C [13] was 58.1%. For the same molecule, the viability, T/C [14] was 61.8%, the viability, T/C [15] was 47.7% and the viability, T/C [16] was 38.8%. The viability, T/C [17] was 31.5%, the viability, T/C [18] was 28.6% and the viability, T/C [19] was 47.4%. For the same molecule, the viability, T/C [20] was 45.6%, the viability, T/C [21] was 38.3% and the viability, T/C [22] was 30.9%. It also gave a viability, T/C [23] of 25.5%, a viability, T/C [24] of 23% and a viability, T/C [25] of 32%. It also gave a viability, T/C [26] of 29.5%, a viability, T/C [27] of 30.2% and a viability, T/C [28] of 20.5%. The viability, T/C [29] was 19% and the viability, T/C [30] was 16.4%.

`CC(C)CC(NC(=O)C(Cc1ccccc1)NC(=O)c1cnccn1)B(O)O` (stereo not given) + CC(C)NCC(C(=O)N1CCN(c2ncnc3c2C(C)CC3O)CC1)c1ccc(Cl)cc1 gave a pIC50 (second compound 0.3 µM) of 8.46, a pIC50 (second compound 0.949 µM) of 8.84 and a pIC50 (second compound 3 µM) of 8.89. The pIC50 (second compound 9.49 µM) was 9.24, the pIC50 (second compound 30 µM) was > 10.50 and the viability, T/C (second compound 0.3 µM, first compound 31.6 pM) was 77.5%. For the same molecule, the viability, T/C (second compound 0.3 µM, first compound 0.0001 µM) was 68.6%, the viability, T/C [1] was 68.7% and the viability, T/C [2] was 68.1%. The viability, T/C [3] was 55%, the viability, T/C [4] was 0.97% and the viability, T/C (second compound 0.949 µM, first compound 31.6 pM) was 60.3%. It also gave a viability, T/C (second compound 0.949 µM, first compound 0.0001 µM) of 64.1%, a viability, T/C [7] of 59% and a viability, T/C [8] of 65.8%. The viability, T/C [9] was 23.7%, the viability, T/C [10] was 1.29% and the viability, T/C (second compound 3 µM, first compound 31.6 pM) was 58.1%. For the same molecule, the viability, T/C (second compound 3 µM, first compound 0.0001 µM) was 58.9%, the viability, T/C [13] was 58.7% and the viability, T/C [14] was 57.9%. It also gave a viability, T/C [15] of 20.6%, a viability, T/C [16] of 0.95% and a viability, T/C (second compound 9.49 µM, first compound 31.6 pM) of 48.1%. It also gave a viability, T/C (second compound 9.49 µM, first compound 0.0001 µM) of 54.8%, a viability, T/C [19] of 50.5% and a viability, T/C [20] of 49%. The viability, T/C [21] was 21.1%, the viability, T/C [22] was 0.94% and the viability, T/C (second compound 30 µM, first compound 31.6 pM) was 31%. It also gave a viability, T/C (second compound 30 µM, first compound 0.0001 µM) of 38.5%, a viability, T/C [25] of 33.7% and a viability, T/C [26] of 34.5%. For the same molecule, the viability, T/C [27] was 14.8% and the viability, T/C [28] was 0.56%.

`CC(C)CC(NC(=O)CNC(=O)c1cc(Cl)ccc1Cl)B1OC(=O)CC(CC(=O)O)(C(=O)O)O1` (stereo not given) + CC(C)NCC(C(=O)N1CCN(c2ncnc3c2C(C)CC3O)CC1)c1ccc(Cl)cc1 gave a pIC50 (second compound 0.3 µM) of 7.86, a pIC50 (second compound 0.949 µM) of 7.92 and a pIC50 (second compound 3 µM) of 7.94. The pIC50 (second compound 9.49 µM) was > 9.50, the pIC50 (second compound 30 µM) was > 9.50 and the viability, T/C [1] was 66.6%. It also gave a viability, T/C [2] of 66.3%, a viability, T/C [3] of 63.6% and a viability, T/C [4] of 63.3%. The viability, T/C [5] was 15.4%, the viability, T/C [6] was 1.16% and the viability, T/C [7] was 57.5%. For the same molecule, the viability, T/C [8] was 61%, the viability, T/C [9] was 62.2% and the viability, T/C [10] was 58.3%. The viability, T/C [11] was 8.98%, the viability, T/C [12] was 1.18% and the viability, T/C [13] was 55.5%. The viability, T/C [14] was 58.3%, the viability, T/C [15] was 53.1% and the viability, T/C [16] was 55.9%. The viability, T/C [17] was 11.1%, the viability, T/C [18] was 0.99% and the viability, T/C [19] was 48.5%. For the same molecule, the viability, T/C [20] was 52.1%, the viability, T/C [21] was 48.5% and the viability, T/C [22] was 46.1%. For the same molecule, the viability, T/C [23] was 9.27%, the viability, T/C [24] was 1.07% and the viability, T/C [25] was 33.9%. It also gave a viability, T/C [26] of 33.5%, a viability, T/C [27] of 34.7% and a viability, T/C [28] of 32.9%. The viability, T/C [29] was 7.76% and the viability, T/C [30] was 0.71%.
